Assay results published in US20240390340A1 (INCYTE CORPORATION, priority 2023, published 2024).

Experiments:
Caco-2 cells = experiment: Caco2 assay (Papp A-B); format: in vitro ADME; conditions: test compound 50 μM, 120 min, 37° C.
Method: Caco-2 cells are grown at 37° C. in an atmosphere of 5% CO2 in DMEM growth medium supplemented with 10% (v/v) fetal bovine serum, 1% (v/v) nonessential amino acids, penicillin (100 U/mL), and streptomycin (100 μg/mL). Confluent cell monolayers are subcultured every 7 days or 4 days for Caco-2 by treatment with 0.05% trypsin containing […]. Caco-2 cells are seeded in 96-well Transwell plates. The seeding density for Caco-2 cells is 14,000 cells/well. DMEM growth medium is replaced every other day after seeding. Cell monolayers are used for transport assays between 22 and 25 days for Caco-2 cells.
Cell culture medium is removed and replaced with HBSS. To measure the TEER, the HBSS is added into the donor compartment (apical side) and receiver compartment (basolateral side). The TEER is measured by using a REMS Autosampler to ensure the integrity of the cell monolayers. Caco-2 cell monolayers with TEER values 300 Ω·cm^2 are used for transport experiments. To determine the Papp in the absorptive direction (A-B), solution of test compound (50 μM) in HBSS is added to the donor compartment (apical side), while HBSS solution with 4% BSA is added to the receiver compartment (basolateral side). The apical volume was 0.075 mL, and the basolateral volume is 0.25 mL. The incubation period is 120 min. at 37° C. in an atmosphere of 5% CO2. At the end of the incubation period, samples from the donor and receiver sides are removed and an equal volume of MeCN is added for protein precipitation. The supernatants are collected after centrifugation (3000 rpm, Allegra X-14R Centrifuge from Beckman Coulter, Indianapolis, IN) for LCMS analysis. The permeability value is determined according to the equation:
[formula] • where the flux rate (F, mass/time) is calculated from the slope of cumulative amounts of compound of interest on the receiver side, SA is the surface area of the cell membrane, VD is the donor volume, and MD is the initial amount of the solution in the donor chamber.
The symbol “+” indicates a Caco-2 value of ≤0.5, “++” indicates a Caco-2 value of >0.5 but ≤1; and “+++” indicates a Caco-2 value of >1. “NA” indicates IC50 not available.

KRAS G12V = KRAS G12V (Homo sapiens, UniProt P01116, G12V); experiment: GDP-GTP exchange assay (bodipy-GDP/GppNHp, SOS1), KRAS G12V; format: biochemical; conditions: Table H, column G12V; for compounds isolated as several atropisomers/diastereoisomers the value for the most potent isomer is quoted; read-out: KRAS G12V exchange assay IC50
Sequence of KRAS G12V (P01116 1-188 isoform P01116-2 G12V): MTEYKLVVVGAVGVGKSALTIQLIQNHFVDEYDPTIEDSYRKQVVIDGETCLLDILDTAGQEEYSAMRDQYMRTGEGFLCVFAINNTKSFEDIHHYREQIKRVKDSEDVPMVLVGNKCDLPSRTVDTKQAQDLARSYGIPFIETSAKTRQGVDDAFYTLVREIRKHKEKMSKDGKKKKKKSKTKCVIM

KRAS G12D = KRAS G12D (Homo sapiens, UniProt P01116, G12D); experiment: GDP-GTP exchange assay (bodipy-GDP/GppNHp, SOS1), KRAS G12D; format: biochemical; conditions: Table H, column G12D; for compounds isolated as several atropisomers/diastereoisomers the value for the most potent isomer is quoted; read-out: KRAS G12D exchange assay IC50
Sequence of KRAS G12D (P01116 1-188 isoform P01116-2 G12D): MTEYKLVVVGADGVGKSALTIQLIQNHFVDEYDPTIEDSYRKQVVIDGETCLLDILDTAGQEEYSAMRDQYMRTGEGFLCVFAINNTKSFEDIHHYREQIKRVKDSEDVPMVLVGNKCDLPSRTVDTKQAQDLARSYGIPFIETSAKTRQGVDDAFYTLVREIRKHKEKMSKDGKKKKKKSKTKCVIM

Row | Caco-2 (Caco-2 cells) | IC50 (KRAS G12V) [nM] | IC50 (KRAS G12D) [nM] | Compound
1 | ++ (a Caco-2 value of >0.5 but ≤1) | ≤ 100 | ≤ 100 | Cc1nc2c(F)c(-c3cccc(Cl)c3Cl)c(CCC#N)cc2c2c1cc([C@H]1C[C@H](OCc3cccc(C(F)(F)F)n3)CN1C(=O)C1CC1)n2[C@H]1[C@H]2CN[C@@H]1C2 [Example 10]
2 | + (a Caco-2 value of ≤0.5) | ≤ 100 | ≤ 100 | Cc1nc2c(F)c(-c3cccc(Cl)c3Cl)c(CCC#N)cc2c2c1cc([C@H]1C[C@H](OCc3cc(C(F)(F)F)sn3)CN1C(=O)C1CC1)n2[C@H]1[C@H]2CN[C@@H]1C2 [Example 11]
3 | ++ (a Caco-2 value of >0.5 but ≤1) | ≤ 100 | ≤ 100 | COc1cccc(F)c1CO[C@H]1C[C@H](c2cc3c(C)nc4c(F)c(-c5cccc(Cl)c5Cl)c(CCC#N)cc4c3n2[C@H]2[C@H]3CN[C@@H]2C3)N(C(=O)C2CC2)C1 [Example 16]
4 | +++ (a Caco-2 value of >1) | ≤ 100 | ≤ 100 | Cc1nc2c(F)c(-c3cccc(Cl)c3Cl)c(CCC#N)cc2c2c1cc([C@H]1C[C@H](Oc3ncccc3F)CN1C(=O)C1CC1)n2[C@H]1[C@H]2CN[C@@H]1C2 [Example 58, 3-(1-((1R,4R,5S)-2-Azabicyclo[2.1.1]hexan-5-yl)-2-((2R,4S)-1-(cyclopropanecarbonyl)-4-((3-fluoropyridin-2-yl)oxy)pyrrolidin-2-yl)-7-(2,3-dichlorophenyl)-6-fluoro-4-methyl-1H-pyrrolo[3,2-c]quinolin-8-yl)propanenitrile]
5 | ++ (a Caco-2 value of >0.5 but ≤1) | ≤ 100 | ≤ 100 | Cc1nc2c(F)c(-c3cccc(Cl)c3Cl)c(CCC#N)cc2c2c1cc([C@H]1C[C@H](Oc3ccc(N(C)C)nc3)CN1C(=O)C1CC1)n2[C@H]1[C@H]2CN[C@@H]1C2 [Example 38, 3-(1-((1R,4R,5S)-2-Azabicyclo[2.1.1]hexan-5-yl)-2-((2R,4S)-1-(cyclopropanecarbonyl)-4-((6-(dimethylamino)pyridin-3-yl)oxy)pyrrolidin-2-yl)-7-(2,3-dichlorophenyl)-6-fluoro-4-methyl-1H-pyrrolo[3,2-c]quinolin-8-yl)propanenitrile]
6 | +++ (a Caco-2 value of >1) | ≤ 100 | ≤ 100 | COc1ncccc1O[C@H]1C[C@H](c2cc3c(C)nc4c(F)c(-c5cccc(Cl)c5Cl)c(CCC#N)cc4c3n2[C@H]2[C@H]3CN[C@@H]2C3)N(C(=O)C2CC2)C1 [Example 1, 3-(1-((1R,4R,5S)-2-Azabicyclo[2.1.1]hexan-5-yl)-2-((2R,4S)-1-(cyclopropanecarbonyl)-4-((2-methoxypyridin-3-yl)oxy)pyrrolidin-2-yl)-7-(2,3-dichlorophenyl)-6-fluoro-4-methyl-1H-pyrrolo[3,2-c]quinolin-8-yl)propanenitrile]

Continued, compound first:

Row | Compound | Caco-2 (Caco-2 cells) | IC50 (KRAS G12V) [nM] | IC50 (KRAS G12D) [nM]
7 | Cc1nc2c(F)c(-c3cccc(Cl)c3Cl)c(CCC#N)cc2c2c1cc([C@H]1C[C@H](OCc3nccs3)C3(CC3)N1C(=O)C1CC1)n2[C@H]1[C@H]2CN[C@@H]1C2 [Example 31] | + (a Caco-2 value of ≤0.5) | ≤ 100 | ≤ 100
8 | Cc1nc2c(F)c(-c3cccc(Cl)c3Cl)c(CCC#N)cc2c2c1cc([C@H]1C[C@H](Oc3cccc(N4CC(F)C4)n3)CN1C(=O)C1CC1)n2[C@H]1[C@H]2CN[C@@H]1C2 [Example 65, 3-(1-((1R,4R,5S)-2-Azabicyclo[2.1.1]hexan-5-yl)-2-((2R,4S)-1-(cyclopropanecarbonyl)-4-((6-(3-fluoroazetidin-1-yl)pyridin-2-yl)oxy)pyrrolidin-2-yl)-7-(2,3-dichlorophenyl)-6-fluoro-4-methyl-1H-pyrrolo[3,2-c]quinolin-8-yl)propanenitrile] | + (a Caco-2 value of ≤0.5) | ≤ 100 | ≤ 100
9 | COc1cc(O[C@H]2C[C@H](c3cc4c(C(C)O)nc5c(F)c(-c6cccc(Cl)c6Cl)c(CCC#N)cc5c4n3[C@H]3[C@H]4CN[C@@H]3C4)N(C(=O)C3CC3)C2)ccn1 (stereo partly drawn) [Example 2, 3-(1-((1R,4R,5S)-2-Azabicyclo[2.1.1]hexan-5-yl)-2-((2R,4S)-1-(cyclopropanecarbonyl)-4-((2-methoxypyridin-4-yl)oxy)pyrrolidin-2-yl)-7-(2,3-dichlorophenyl)-6-fluoro-4-(1-hydroxyethyl)-1H-pyrrolo[3,2-c]quinolin-8-yl)propanenitrile] | +++ (a Caco-2 value of >1) | ≤ 100 | ≤ 100
10 | COc1cccc(O[C@H]2C[C@H](c3cc4c(C)nc5c(F)c(-c6cccc(Cl)c6Cl)c(CCC#N)cc5c4n3[C@H]3[C@H]4CN[C@@H]3C4)N(C(=O)C3CC3)C2)c1 [Example 44, 3-(1-((1R,4R,5S)-2-Azabicyclo[2.1.1]hexan-5-yl)-2-((2R,4S)-1-(cyclopropanecarbonyl)-4-(3-methoxyphenoxy)pyrrolidin-2-yl)-7-(2,3-dichlorophenyl)-6-fluoro-4-methyl-1H-pyrrolo[3,2-c]quinolin-8-yl)propanenitrile] | + (a Caco-2 value of ≤0.5) | ≤ 100 | ≤ 100
11 | COc1nccc(O[C@H]2C[C@H](c3cc4c([C@@H](C)O)nc5c(F)c(-c6cccc(Cl)c6Cl)c(CCC#N)cc5c4n3[C@H]3[C@H]4CN[C@@H]3C4)N(C(=O)C3CC3)C2)c1F [Example 53, 3-(1-((1R,4R,5S)-2-Azabicyclo[2.1.1]hexan-5-yl)-2-((2R,4S)-1-(cyclopropanecarbonyl)-4-((3-fluoro-2-methoxypyridin-4-yl)oxy)pyrrolidin-2-yl)-7-(2,3-dichlorophenyl)-6-fluoro-4-((R)-1-hydroxyethyl)-1H-pyrrolo[3,2-c]quinolin-8-yl)propanenitrile] | ++ (a Caco-2 value of >0.5 but ≤1) | ≤ 100 | ≤ 100
12 | Cc1nc2c(F)c(-c3cccc(Cl)c3Cl)c(CCC#N)cc2c2c1cc([C@H]1C[C@H](n3cc(C(C)(C)C)nn3)CN1C(=O)C1CC1)n2[C@H]1[C@H]2CN[C@@H]1C2 [Example 4, 3-(1-((1R,4R,5S)-2-Azabicyclo[2.1.1]hexan-5-yl)-2-((2R,4S)-4-(4-(tert-butyl)-1H-1,2,3-triazol-1-yl)-1-(cyclopropanecarbonyl)pyrrolidin-2-yl)-7-(2,3-dichlorophenyl)-6-fluoro-4-methyl-1H-pyrrolo[3,2-c]quinolin-8-yl)propanenitrile] | +++ (a Caco-2 value of >1) | ≤ 100 | ≤ 100
13 | C[C@@H](O)c1nc2c(F)c(-c3cccc(Cl)c3Cl)c(CCC#N)cc2c2c1cc([C@H]1C[C@H](Oc3cc(C4CC4)on3)CN1C(=O)C1CC1)n2[C@H]1[C@H]2CN[C@@H]1C2 [Example 77, 3-(1-((1R,4R,5S)-2-Azabicyclo[2.1.1]hexan-5-yl)-2-((2R,4S)-1-(cyclopropanecarbonyl)-4-((5-cyclopropylisoxazol-3-yl)oxy)pyrrolidin-2-yl)-7-(2,3-dichlorophenyl)-6-fluoro-4-((R)-1-hydroxyethyl)-1H-pyrrolo[3,2-c]quinolin-8-yl)propanenitrile] | + (a Caco-2 value of ≤0.5) | ≤ 100 | ≤ 100
